Laboratory results published in US11197840B2, “Methods of treating or alleviating mental disorders and associated symptoms” (The Florey Institute of Neuroscience and Mental Health, priority 2015, dated 2021).

Columns and labels:
[1] = system: 5-hydroxytryptamine (serotonin) receptor 2C; test: Next Generation Sequencing (RNAseq) of primary cortical neurons: 5-hydroxytryptamine receptor 2C transcript; assay type: cell-based, mouse; details: 1 mM 10-HDA vs DMSO, primary cortical neurons of C57Black 6 mice, harvested Day 7
Protocol: (§1) Foetal cortices of C57Black 6 mice (gestational days 15) were micro-dissected and subjected to trypsin digestion and mechanical trituration and centrifugation. The pelleted cells were resuspended in Neurobasal™ medium (NBM) containing 2.5% B-27 supplement, 1% penicillin, 1% streptomycin, 0.25% GlutaMAX-1 supplement and 10% dialysed foetal calf serum. Cells were seeded on poly-d-lysine (100 μg/ml) coated 12-well plates to a density of […]. Cultures were maintained at 37° C. in a humidified 5% CO2 and 95% air incubator and were subsequently cultured after day 1 in serum-free medium. After 24 hours, primary cortical neurons were treated with DMSO or 1 mM 10-HDA, and harvested for total RNA preparation on Day 7 for subsequent Next Generation Sequencing (RNAseq). […]
(§2) Total RNA was extracted from each sample using the PARIS kit (Ambion). The quality of RNA was assessed by LabChip® (Perkin Elmer). […] The libraries were sequenced with 50 bp single end reads using Illumina Hiseq and subjected to bioinformatic analyses. Sequencing data were assessed (FastQC) and aligned to mouse genome using Subjunc aligner within the Subread package. Sequencing data was summarised into Reads per transcript using Feature counts and the Gencode gene models for the mouse genome build. […]

dynamin 3 = test: Next Generation Sequencing (RNAseq) of primary cortical neurons: dynamin 3 transcript; assay type: cell-based, mouse; details: 1 mM 10-HDA vs DMSO, primary cortical neurons of C57Black 6 mice, harvested Day 7
Protocol: as §1, §2

[2] = system: male ArKO (aromatase knockout) mice; test: Water mist spray triggered grooming in male ArKO mice treated with 10-HDA; assay type: in vivo, mouse
Protocol: Specifically, male 3 month-old ArKO mice (n=5) were injected daily with 10-HDA (500 μg/kg) for 1 week. Similarly to Example 1 (see above), water mist spray triggered grooming was assessed before and after administration of 10-HDA treatment. During grooming assessment, each mouse was subjected to two squirts of sterile water mist spray and its grooming activity was recorded for 10 min immediately after the mist spray. Grooming duration was analyzed statistically by paired t test. […] Further grooming assessment was performed 5 days after the last administration of 10-HDA.

male ArKO mice = test: Behavioural disturbances of male ArKO mice (wheel running, compulsive grooming); assay type: in vivo, mouse; details: administration to male ArKO mice; general statement
Protocol: Specifically, the grooming activity of each animal was analysed for 20 min after administration of water mist spray (a trigger for grooming). […] Compulsive grooming observed in ArKO represents an OCD-like repetitive behavioural disturbance in OCD-patients.

**Q.** Which results are given for `O=C(O)C=CCCCCCCCO` [10-HDA, 10-hydroxy-2-decenoic acid]?
**A.** transcript expression level of 5-hydroxytryptamine (serotonin) receptor 2C [1]: significantly upregulated; transcript expression level of dynamin 3 (dynamin 3): significantly upregulated; grooming duration after the withdrawal period ([2]; 5 days after the last administration of 10-HDA, male ArKO mice): return to pre-treatment levels; duration of grooming after administration of 10-HDA ([2]; male 3 month-old ArKO mice, 500 μg/kg injected daily for 1 week, 10 min after water mist spray, before vs after treatment, paired t test p=0.0363): significant reduction; behavioural disturbances, including wheel running and/or compulsive grooming (male ArKO mice): alleviated one or more of the behavioural disturbances
